Test results taken from US8192962B2, “Processes for detecting toxic substances” (Daikin Industries, Ltd., priority 2001, dated 2012).

System: DNA repair protein genes
Assay: DNA chip mRNA expression in yeast, DNA repair protein genes (Table 3)
Type: cell-based, Saccharomyces cerevisiae S288C
Conditions: incubated two hours, concentrations as in the 1st table
How it was run: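 Expression change after 2 h toxicant exposure (growth-inhibiting, sub-lethal) of log-phase S. cerevisiae S288C at 25° C. Oligo-dT-purified mRNA was labeled with Cy3-dUTP or Cy5-dUTP and hybridized >12 h at 65° C. to a genome-wide chip; ratio of scanned fluorescence to control.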

[Cl][Pb][Cl] [(4), PbCl2]
The level of expressed mRNA in the presence of chemical substance/The level of expressed mRNA in the absence of chemical substance (yeast gene YAL015C): 1.9 | The level of expressed mRNA in the presence of chemical substance/The level of expressed mRNA in the absence of chemical substance (yeast gene YAR007C): 0.5 | The level of expressed mRNA in the presence of chemical substance/The level of expressed mRNA in the absence of chemical substance (yeast gene YBL019W): 1.2 | The level of expressed mRNA in the presence of chemical substance/The level of expressed mRNA in the absence of chemical substance (yeast gene YBR073W): 0.7 | The level of expressed mRNA in the presence of chemical substance/The level of expressed mRNA in the absence of chemical substance (yeast gene YBR272C): 1.0 | The level of expressed mRNA in the presence of chemical substance/The level of expressed mRNA in the absence of chemical substance (yeast gene YCR014C): 0.6 | The level of expressed mRNA in the presence of chemical substance/The level of expressed mRNA in the absence of chemical substance (yeast gene YDL017W): 1.3 | The level of expressed mRNA in the presence of chemical substance/The level of expressed mRNA in the absence of chemical substance (yeast gene YDL059C): 1.7 | The level of expressed mRNA in the presence of chemical substance/The level of expressed mRNA in the absence of chemical substance (yeast gene YDL200C): 1.8 | The level of expressed mRNA in the presence of chemical substance/The level of expressed mRNA in the absence of chemical substance (yeast gene YDR054C): 1.4 | The level of expressed mRNA in the presence of chemical substance/The level of expressed mRNA in the absence of chemical substance (yeast gene YDR369C): 1.1 | The level of expressed mRNA in the presence of chemical substance/The level of expressed mRNA in the absence of chemical substance (yeast gene YEL019C): 0.7 | The level of expressed mRNA in the presence of chemical substance/The level of expressed mRNA in the absence of chemical substance (yeast gene YEL037C): 1.0 | The level of expressed mRNA in the presence of chemical substance/The level of expressed mRNA in the absence of chemical substance (yeast gene YER162C): 1.1 | The level of expressed mRNA in the presence of chemical substance/The level of expressed mRNA in the absence of chemical substance (yeast gene YFL014W): 11.0 | The level of expressed mRNA in the presence of chemical substance/The level of expressed mRNA in the absence of chemical substance (yeast gene YGL058W): 0.7 | The level of expressed mRNA in the presence of chemical substance/The level of expressed mRNA in the absence of chemical substance (yeast gene YGL091C): 1.7 | The level of expressed mRNA in the presence of chemical substance/The level of expressed mRNA in the absence of chemical substance (yeast gene YGL127C): 1.7 | The level of expressed mRNA in the presence of chemical substance/The level of expressed mRNA in the absence of chemical substance (yeast gene YGL163C): 4.3 | The level of expressed mRNA in the presence of chemical substance/The level of expressed mRNA in the absence of chemical substance (yeast gene YGL249W): 0.8 | The level of expressed mRNA in the presence of chemical substance/The level of expressed mRNA in the absence of chemical substance (yeast gene YGR180C): 1.0 | The level of expressed mRNA in the presence of chemical substance/The level of expressed mRNA in the absence of chemical substance (yeast gene YGR231C): 1.0 | The level of expressed mRNA in the presence of chemical substance/The level of expressed mRNA in the absence of chemical substance (yeast gene YGR258C): 0.7 | The level of expressed mRNA in the presence of chemical substance/The level of expressed mRNA in the absence of chemical substance (yeast gene YHR164C): 0.7 | The level of expressed mRNA in the presence of chemical substance/The level of expressed mRNA in the absence of chemical substance (yeast gene YIL036W): 1.8 | The level of expressed mRNA in the presence of chemical substance/The level of expressed mRNA in the absence of chemical substance (yeast gene YIL072W): 2.6 | The level of expressed mRNA in the presence of chemical substance/The level of expressed mRNA in the absence of chemical substance (yeast gene YIL143C): 0.9 | The level of expressed mRNA in the presence of chemical substance/The level of expressed mRNA in the absence of chemical substance (yeast gene YIL153W): 2.9 | The level of expressed mRNA in the presence of chemical substance/The level of expressed mRNA in the absence of chemical substance (yeast gene YIR002C): 0.6 | The level of expressed mRNA in the presence of chemical substance/The level of expressed mRNA in the absence of chemical substance (yeast gene YJL026W): 1.0 | The level of expressed mRNA in the presence of chemical substance/The level of expressed mRNA in the absence of chemical substance (yeast gene YJR046W): 1.5 | The level of expressed mRNA in the presence of chemical substance/The level of expressed mRNA in the absence of chemical substance (yeast gene YJR052W): 1.0 | The level of expressed mRNA in the presence of chemical substance/The level of expressed mRNA in the absence of chemical substance (yeast gene YKL145W): 1.0 | The level of expressed mRNA in the presence of chemical substance/The level of expressed mRNA in the absence of chemical substance (yeast gene YLR103C): 0.4 | The level of expressed mRNA in the presence of chemical substance/The level of expressed mRNA in the absence of chemical substance (yeast gene YLR233C): 2.0 | The level of expressed mRNA in the presence of chemical substance/The level of expressed mRNA in the absence of chemical substance (yeast gene YLR288C): 1.8 | The level of expressed mRNA in the presence of chemical substance/The level of expressed mRNA in the absence of chemical substance (yeast gene YML032C): 0.7 | The level of expressed mRNA in the presence of chemical substance/The level of expressed mRNA in the absence of chemical substance (yeast gene YML058W): 1.9 | The level of expressed mRNA in the presence of chemical substance/The level of expressed mRNA in the absence of chemical substance (yeast gene YMR035W): 1.7 | The level of expressed mRNA in the presence of chemical substance/The level of expressed mRNA in the absence of chemical substance (yeast gene YMR072W): 1.0 | The level of expressed mRNA in the presence of chemical substance/The level of expressed mRNA in the absence of chemical substance (yeast gene YMR096W): 0.8 | The level of expressed mRNA in the presence of chemical substance/The level of expressed mRNA in the absence of chemical substance (yeast gene YMR284W): 2.0 | The level of expressed mRNA in the presence of chemical substance/The level of expressed mRNA in the absence of chemical substance (yeast gene YNL213C): 1.5 | The level of expressed mRNA in the presence of chemical substance/The level of expressed mRNA in the absence of chemical substance (yeast gene YNL250W): 1.2 | The level of expressed mRNA in the presence of chemical substance/The level of expressed mRNA in the absence of chemical substance (yeast gene YNL261W): 1.3 | The level of expressed mRNA in the presence of chemical substance/The level of expressed mRNA in the absence of chemical substance (yeast gene YNL312W): 0.7 | The level of expressed mRNA in the presence of chemical substance/The level of expressed mRNA in the absence of chemical substance (yeast gene YOL043C): 1.7 | The level of expressed mRNA in the presence of chemical substance/The level of expressed mRNA in the absence of chemical substance (yeast gene YOR005C): 0.8 | The level of expressed mRNA in the presence of chemical substance/The level of expressed mRNA in the absence of chemical substance (yeast gene YOR386W): 1.5 | The level of expressed mRNA in the presence of chemical substance/The level of expressed mRNA in the absence of chemical substance (yeast gene YPL022W): 1.2 | The level of expressed mRNA in the presence of chemical substance/The level of expressed mRNA in the absence of chemical substance (yeast gene YPL164C): 1.0 | The level of expressed mRNA in the presence of chemical substance/The level of expressed mRNA in the absence of chemical substance (yeast gene YPL194W): 1.1 | The level of expressed mRNA in the presence of chemical substance/The level of expressed mRNA in the absence of chemical substance (yeast gene YPR025C): 0.6
